Measurements: patent US10975084B2, “KDM5 inhibitors” (Merck Sharp & Dohme Corp., priority 2016, dated 2021)

Target: KDM5B (Homo sapiens (Human), UniProt Q9UGL1)
Test: KDM5B TR-FRET Enzyme Activity Assay
Format: biochemical
Conditions: LANCE TR-FRET; 5 nM full-length recombinant KDM5B; ten point titration 100000 nM to 5.08 nM
Procedure: KDM5B TR-FRET Enzyme Activity Assay
KDM5B enzymatic activity was determined with the LANCE (Lanthanide Chelate Excite) TR-FRET (Time-resolved fluorescence resonance energy transfer) assay. […] To each well of a white Greiner 1536 Lumitrac 1536 well-plate, 50 nL of compound (100 fold dilution in final assay volume of 5 μL) was dispensed, followed by the addition of 4 μL of 1× assay buffer (50 mM Hepes 7.3, 0.5 mM TCEP, 0.005% Brij-35, 0.02% BSA, 50 μM Na-L-Ascorbate and 2 μM AmFe(II)Sulfate) containing 5 nM of Full-length KDM5B enzyme (recombinant protein from baculovirus-transfected Sf21 cells: full-length KDM5B; MW=176.825 kDa). Following a 30 minutes compound and enzyme incubation in a humidified chamber, each reaction was initiated by the addition of 1 μL 1× assay buffer containing […] biotinylated H3K4Me3 peptide, and 500 nM α-ketoglutarate. The final reaction in each well of 5 μL consists of 5 nM KDM5B, 500 nM biotinylated-peptide, and 500 nM α-ketoglutarate. De-methylation reactions were allowed to proceed for 60 minutes. Reactions were immediately quenched by the addition of 5 uL of 2× Lance Detection Buffer (PerkinElmer) with 0.5 mM EDTA and 2 nM of Eu-anti-H3K4Me1-2 antibody, and 30 nM of Streptavidin-conjugated Dylight 650 detection reagents. After 60 minutes incubation with detection reagents, reaction plates were read on a PerkinElmer EnVision plate reader using standard TR-FRET protocol. Briefly, excitation of donor molecules (Eu-chelate-anti-H3K4Me1-2-antibody) with a laser light source at 337 nm produces energy that can be transferred to Dylight-650 acceptor molecules if this donor:acceptor pair is within close proximity. Fluorescence intensity at both 665 nm (acceptor) and 615 nm (donor) are measured and a TR-FRET ratio calculated for each well (acceptor intensity/donor intensity). IC50 values were determined by 4 parameter robust fit of TR-FRET ratio values vs. (Log 10) compound concentrations.

Chain of KDM5B (Q9UGL1 whole entry): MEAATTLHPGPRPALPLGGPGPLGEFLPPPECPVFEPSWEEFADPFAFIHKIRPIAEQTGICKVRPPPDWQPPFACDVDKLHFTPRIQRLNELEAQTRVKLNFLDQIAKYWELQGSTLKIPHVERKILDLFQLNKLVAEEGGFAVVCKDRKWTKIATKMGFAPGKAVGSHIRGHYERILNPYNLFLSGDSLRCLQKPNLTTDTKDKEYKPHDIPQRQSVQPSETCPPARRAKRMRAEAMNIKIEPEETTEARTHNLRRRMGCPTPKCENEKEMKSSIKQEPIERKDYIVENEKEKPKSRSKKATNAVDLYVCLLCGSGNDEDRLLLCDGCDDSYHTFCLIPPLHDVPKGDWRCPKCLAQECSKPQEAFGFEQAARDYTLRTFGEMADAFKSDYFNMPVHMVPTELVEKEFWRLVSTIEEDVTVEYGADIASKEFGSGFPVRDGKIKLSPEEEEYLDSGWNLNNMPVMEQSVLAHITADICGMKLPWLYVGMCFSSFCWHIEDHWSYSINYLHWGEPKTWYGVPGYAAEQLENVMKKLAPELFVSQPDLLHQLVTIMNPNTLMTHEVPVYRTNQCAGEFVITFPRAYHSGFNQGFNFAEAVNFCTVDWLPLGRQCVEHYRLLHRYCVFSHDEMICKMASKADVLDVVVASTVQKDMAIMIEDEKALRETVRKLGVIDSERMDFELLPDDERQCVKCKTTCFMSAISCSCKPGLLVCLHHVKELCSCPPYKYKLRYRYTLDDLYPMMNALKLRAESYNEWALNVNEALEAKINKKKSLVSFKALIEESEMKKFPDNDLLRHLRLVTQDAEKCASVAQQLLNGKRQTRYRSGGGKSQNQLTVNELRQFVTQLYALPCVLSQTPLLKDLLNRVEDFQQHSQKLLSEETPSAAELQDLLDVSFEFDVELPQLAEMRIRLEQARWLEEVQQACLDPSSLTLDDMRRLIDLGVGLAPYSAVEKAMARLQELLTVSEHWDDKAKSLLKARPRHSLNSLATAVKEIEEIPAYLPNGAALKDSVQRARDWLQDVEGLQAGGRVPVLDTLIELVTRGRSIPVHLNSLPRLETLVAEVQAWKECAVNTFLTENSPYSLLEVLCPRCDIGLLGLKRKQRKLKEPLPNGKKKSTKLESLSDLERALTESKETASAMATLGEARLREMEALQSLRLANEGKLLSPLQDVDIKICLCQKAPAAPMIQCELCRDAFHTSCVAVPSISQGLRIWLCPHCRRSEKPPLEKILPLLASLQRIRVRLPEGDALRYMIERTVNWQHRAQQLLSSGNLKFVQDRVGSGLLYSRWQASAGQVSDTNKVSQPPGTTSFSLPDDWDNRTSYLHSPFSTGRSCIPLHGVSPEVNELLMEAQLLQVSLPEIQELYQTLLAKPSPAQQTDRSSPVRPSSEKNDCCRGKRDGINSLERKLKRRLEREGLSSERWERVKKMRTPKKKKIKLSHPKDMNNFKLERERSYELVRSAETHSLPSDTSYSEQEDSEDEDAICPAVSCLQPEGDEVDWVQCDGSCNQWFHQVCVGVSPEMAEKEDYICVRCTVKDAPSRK

SMILES	IC50
CC(C)(C)c1c(-c2ccc(F)cc2)[nH]c2ncnn2c1=O [Example 11-5, 6-tert-butyl-5-(4-fluorophenyl)[1,2,4]triazolo[1,5-a]pyrimidin-7(4H)-one]	5400 nM
Cn1cc(-c2[nH]c3ncnn3c(=O)c2C(C)(C)C)cn1 [Example 11-6, 6-tert-butyl-5-(1-methyl-1H-pyrazol-4-yl)[1,2,4]triazolo[1,5-a]pyrimidin-7(4H)-one]	1270 nM
CC(C)(C)c1c(-c2cnn(-c3ccccc3)c2)[nH]c2ncnn2c1=O [Example 11-7, 6-tert-butyl-5-(1-phenyl-1H-pyrazol-4-yl)[1,2,4]triazolo[1,5-a]pyrimidin-7(4H)-one]	772 nM
CC(C)c1c(-c2cnn(-c3ccccc3)c2)[nH]c2ncnn2c1=O [Example 11-8, 6-(1-methylethyl)-5-(1-phenyl-1H-pyrazol-4-yl)[1,2,4]triazolo[1,5-a]pyrimidin-7(4H)-one]	6.28 nM
CC(C)c1c(-c2cnn(Cc3ccccc3)c2)[nH]c2ncnn2c1=O [Example 11-9, 5-(1-benzyl-1H-pyrazol-4-yl)-6-(1-methylethyl)[1,2,4]triazolo[1,5-a]pyrimidin-7(4H)-one]	7.3 nM
CC(C)c1c(-c2ccc(N3CCOCC3)cc2)[nH]c2ncnn2c1=O [Example 11-10, 6-(1-methylethyl)-5-(4-morpholin-4-ylphenyl)[1,2,4]triazolo[1,5-a]pyrimidin-7(4H)-one]	7.52 nM
CC(C)c1c(-c2ccc(F)cc2)[nH]c2ncnn2c1=O [Example 11-11, 5-(4-fluorophenyl)-6-(1-methylethyl)[1,2,4]triazolo[1,5-a]pyrimidin-7(4H)-one]	160 nM
CC(C)Cn1cc(-c2[nH]c3ncnn3c(=O)c2C(C)C)cn1 [Example 11-12, 6-(1-methylethyl)-5-[1-(2-methylpropyl)-1H-pyrazol-4-yl][1,2,4]triazolo[1,5-a]pyrimidin-7(4H)-one]	5.08 nM
CC(C)c1c(-c2cnn(CC3(F)CCCC3)c2)[nH]c2ncnn2c1=O [Example 11-13, 5-{1-[(1-fluorocyclopentyl)methyl]-1H-pyrazol-4-yl}-6-(1-methylethyl)[1,2,4]triazolo[1,5-a]pyrimidin-7(4H)-one]	5.08 nM
CC(C)c1c(-c2cnn(CC3CC3)c2)[nH]c2ncnn2c1=O [Example 11-14, 5-[1-(cyclopropylmethyl)-1H-pyrazol-4-yl]-6-(1-methylethyl)[1,2,4]triazolo[1,5-a]pyrimidin-7(4H)-one]	5.08 nM
CC(C)c1c(-c2cnn(Cc3ccncc3)c2)[nH]c2ncnn2c1=O [Example 11-15, 6-(1-methylethyl)-5-[1-(pyridin-4-ylmethyl)-1H-pyrazol-4-yl][1,2,4]triazolo[1,5-a]pyrimidin-7(4H)-one]	7.5 nM
COCCn1cc(-c2[nH]c3ncnn3c(=O)c2C(C)C)cn1 [Example 11-16, 5-[1-(2-methoxyethyl)-1H-pyrazol-4-yl]-6-(1-methylethyl)[1,2,4]triazolo[1,5-a]pyrimidin-7(4H)-one]	5.73 nM
CC(C)c1c(-c2cnn(-c3ccc(F)cc3)c2)[nH]c2ncnn2c1=O [Example 11-17, 5-[1-(4-fluorophenyl)-1H-pyrazol-4-yl]-6-(1-methylethyl)[1,2,4]triazolo[1,5-a]pyrimidin-7(4H)-one]	6.47 nM
CC(C)c1c(-c2cnn(C3CC3)c2)[nH]c2ncnn2c1=O [Example 11-18, 5-(1-cyclopropyl-1H-pyrazol-4-yl)-6-(1-methylethyl)[1,2,4]triazolo[1,5-a]pyrimidin-7(4H)-one]	5.74 nM
CCn1cc(-c2[nH]c3ncnn3c(=O)c2C(C)C)cn1 [Example 11-19, 5-(1-ethyl-1H-pyrazol-4-yl)-6-(1-methylethyl)[1,2,4]triazolo[1,5-a]pyrimidin-7(4H)-one]	6.27 nM
CC(C)c1c(-c2cnn(C(C)C)c2)[nH]c2ncnn2c1=O [Example 11-20, 6-(1-methylethyl)-5-[1-(1-methylethyl)-1H-pyrazol-4-yl][1,2,4]triazolo[1,5-a]pyrimidin-7(4H)-one]	5.08 nM
CCCn1cc(-c2[nH]c3ncnn3c(=O)c2C(C)C)cn1 [Example 11-21, 6-(1-methylethyl)-5-(1-propyl-1H-pyrazol-4-yl)[1,2,4]triazolo[1,5-a]pyrimidin-7(4H)-one]	5.08 nM
C=C(CCC)c1[nH]c2ncnn2c(=O)c1C(C)C [Example 11-22, 6-(1-methylethyl)-5-(1-methylidene-butyl)[1,2,4]triazolo[1,5-a]pyrimidin-7(4H)-one]	808 nM

SMILES	IC50
COC/C=C/c1[nH]c2ncnn2c(=O)c1C(C)C [Example 11-23, 5-[(1E)-3-methoxyprop-1-en-1-yl]-6-(1-methylethyl)[1,2,4]triazolo[1,5-a]pyrimidin-7(4H)-one]	27.7 nM
CC(C)c1c(-c2ccncc2)[nH]c2ncnn2c1=O [Example 11-24, 6-(1-methylethyl)-5-pyridin-4-yl[1,2,4]triazolo[1,5-a]pyrimidin-7(4H)-one]	41.2 nM
CC(C)c1c(-c2cccnc2)[nH]c2ncnn2c1=O [Example 11-25, 6-(1-methylethyl)-5-pyridin-3-yl[1,2,4]triazolo[1,5-a]pyrimidin-7(4H)-one]	47.1 nM
CC(C)c1c(-c2cncnc2)[nH]c2ncnn2c1=O [Example 11-26, 6-(1-methylethyl)-5-pyrimidin-5-yl[1,2,4]triazolo[1,5-a]pyrimidin-7(4H)-one]	103 nM
CC(C)c1c(-c2ccn(C)c2)[nH]c2ncnn2c1=O [Example 11-27, 6-(1-methylethyl)-5-(1-methyl-1H-pyrrol-3-yl)[1,2,4]triazolo[1,5-a]pyrimidin-7(4H)-one]	17.9 nM
Cc1[nH]ncc1-c1[nH]c2ncnn2c(=O)c1C(C)C [Example 11-28, 6-(1-methylethyl)-5-(5-methyl-1H-pyrazol-4-yl)[1,2,4]triazolo[1,5-a]pyrimidin-7(4H)-one]	155 nM
CC(C)c1c(C2=CCCCC2)[nH]c2ncnn2c1=O [Example 11-29, 5-cyclohex-1-en-1-yl-6-(1-methylethyl)[1,2,4]triazolo[1,5-a]pyrimidin-7(4H)-one]	399 nM
CC(C)c1c(C2=COCCC2)[nH]c2ncnn2c1=O [Example 11-30, 5-(3,4-dihydro-2H-pyran-5-yl)-6-(1-methylethyl)[1,2,4]triazolo[1,5-a]pyrimidin-7(4H)-one]	254 nM
CC(C)c1c(C2=CCCOC2)[nH]c2ncnn2c1=O [Example 11-31, 5-(5,6-dihydro-2H-pyran-3-yl)-6-(1-methylethyl)[1,2,4]triazolo[1,5-a]pyrimidin-7(4H)-one]	372 nM
CC(C)c1c(-c2ccccc2F)[nH]c2ncnn2c1=O [Example 11-32, 5-(2-fluorophenyl)-6-(1-methylethyl)[1,2,4]triazolo[1,5-a]pyrimidin-7(4H)-one]	394 nM
CC(C)c1c(-c2cccc(F)c2)[nH]c2ncnn2c1=O [Example 11-33, 5-(3-fluorophenyl)-6-(1-methylethyl)[1,2,4]triazolo[1,5-a]pyrimidin-7(4H)-one]	136 nM
Cc1noc(C)c1-c1[nH]c2ncnn2c(=O)c1C(C)C [Example 11-34, 5-(3,5-dimethylisoxazol-4-yl)-6-(1-methylethyl)[1,2,4]triazolo[1,5-a]pyrimidin-7(4H)-one]	11100 nM
CC(C)c1c(C2=CCCN(C)C2)[nH]c2ncnn2c1=O [Example 11-35, 6-(1-methylethyl)-5-(1-methyl-1,2,5,6-tetrahydropyridin-3-yl)[1,2,4]triazolo[1,5-a]pyrimidin-7(4H)-one]	506 nM
CC(C)c1c(C2=CCC(O)CC2)[nH]c2ncnn2c1=O (stereo not drawn) [Example 11-36, 5-(4-hydroxycyclohex-1-en-1-yl)-6-(1-methylethyl)[1,2,4]triazolo[1,5-a]pyrimidin-7(4H)-one]	137 nM
CC(C)c1c(-c2cccc(C#N)c2)[nH]c2ncnn2c1=O [Example 11-37, 3-[6-(1-methylethyl)-7-oxo-4,7-dihydro[1,2,4]triazolo[1,5-a]pyrimidin-5-yl]benzonitrile]	21.6 nM
CC(C)c1c(-c2ccc(C#N)cc2)[nH]c2ncnn2c1=O [Example 11-38, 4-[6-(1-methylethyl)-7-oxo-4,7-dihydro[1,2,4]triazolo[1,5-a]pyrimidin-5-yl]benzonitrile]	21.6 nM
CC(C)c1c(-c2cnn(Cc3ccccn3)c2)[nH]c2ncnn2c1=O [Example 11-39, 6-(1-methylethyl)-5-[1-(pyridin-2-ylmethyl)-1H-pyrazol-4-yl][1,2,4]triazolo[1,5-a]pyrimidin-7(4H)-one]	5.83 nM
CC(C)c1c(-c2cnn(Cc3cccnc3)c2)[nH]c2ncnn2c1=O [Example 11-40, 6-(1-methylethyl)-5-[1-(pyridin-3-ylmethyl)-1H-pyrazol-4-yl][1,2,4]triazolo[1,5-a]pyrimidin-7(4H)-one]	5.77 nM
